Reference: ChEMBL document CHEMBL3132769, “Fragment growing to retain or alter the selectivity of anchored kinase hinge-binding fragments” (Medchemcomm, 2014)

How the values were obtained:
[1] = target: Ribosomal protein S6 kinase alpha-2 (Homo sapiens) (UniProt Q15349); assay: Inhibition of human full length RSK3 expressed in baculovirus assessed as substrate phosphorylation using fluorescence-labelled peptides as substrate at 9 uM after 90 mins by microfluidic peptide phosphorylation assay
[2] = target: Mitogen-activated protein kinase 3 (Homo sapiens) (UniProt P27361); assay: Inhibition of human full length ERK1 expressed in Escherichia coli cell assessed as substrate phosphorylation using fluorescence-labelled peptides as substrate at 95 uM after 90 mins by microfluidic peptide phosphorylation assay
[3] = target: Serine/threonine-protein kinase Chk2 (Homo sapiens) (UniProt O96017); assay: Inhibition of human full length CHK2 expressed in baculovirus assessed as substrate phosphorylation using fluorescence-labelled peptides as substrate at 95 uM after 90 mins by microfluidic peptide phosphorylation assay
[4] = target: Protein kinase C gamma type (Homo sapiens) (UniProt P05129); assay: Inhibition of human truncated PKC gamma expressed in baculovirus assessed as substrate phosphorylation using fluorescence-labelled peptides as substrate at 0.06 uM after 90 mins by microfluidic peptide phosphorylation assay
[5] = target: Tyrosine-protein kinase Lck (Homo sapiens) (UniProt P06239); assay: Inhibition of human full length LCK expressed in baculovirus assessed as substrate phosphorylation using fluorescence-labelled peptides as substrate at 0.06 uM after 90 mins by microfluidic peptide phosphorylation assay
[6] = target: Mitogen-activated protein kinase 1 (Homo sapiens) (UniProt P28482); conditions: 0.1 uM
Description: Inhibition of human full length ERK2 expressed in Escherichia coli cell assessed as substrate phosphorylation using fluorescence-labelled peptides as substrate at 0.1 uM after 90 mins by microfluidic peptide phosphorylation assay

[7] = target: Platelet-derived growth factor receptor alpha (Homo sapiens) (UniProt P16234); assay: Inhibition of human PDGFR alpha catalytic domain expressed in baculovirus assessed as substrate phosphorylation using fluorescence-labelled peptides as substrate at 0.1 uM after 90 mins by microfluidic peptide phosphorylation assay
[8] = target: T1, Interleukin-1 receptor-associated kinase 4 (Homo sapiens) (UniProt Q9NWZ3); assay: Inhibition of human IRAK4 catalytic domain expressed in baculovirus assessed as substrate phosphorylation using fluorescence-labelled peptides as substrate at 70 uM after 90 mins by microfluidic peptide phosphorylation assay
T1 sequence (whole entry): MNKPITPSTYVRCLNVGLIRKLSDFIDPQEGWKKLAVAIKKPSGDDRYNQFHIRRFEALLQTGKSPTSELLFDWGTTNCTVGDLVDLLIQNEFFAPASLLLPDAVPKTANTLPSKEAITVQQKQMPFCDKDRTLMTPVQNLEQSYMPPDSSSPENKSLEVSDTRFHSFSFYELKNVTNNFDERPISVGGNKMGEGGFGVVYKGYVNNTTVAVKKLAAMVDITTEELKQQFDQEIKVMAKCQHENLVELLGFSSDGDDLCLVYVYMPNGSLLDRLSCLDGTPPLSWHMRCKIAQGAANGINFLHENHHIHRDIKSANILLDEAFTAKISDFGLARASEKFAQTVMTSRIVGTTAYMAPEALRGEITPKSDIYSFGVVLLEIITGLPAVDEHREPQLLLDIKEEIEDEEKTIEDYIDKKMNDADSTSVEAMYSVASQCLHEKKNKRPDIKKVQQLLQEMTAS

[9] = target: T2, Aurora kinase A (Homo sapiens) (UniProt O14965); assay: Inhibition of human full length AurA expressed in baculovirus assessed as substrate phosphorylation using fluorescence-labelled peptides as substrate at 0.2 uM after 90 mins by microfluidic peptide phosphorylation assay
T2 sequence (whole entry): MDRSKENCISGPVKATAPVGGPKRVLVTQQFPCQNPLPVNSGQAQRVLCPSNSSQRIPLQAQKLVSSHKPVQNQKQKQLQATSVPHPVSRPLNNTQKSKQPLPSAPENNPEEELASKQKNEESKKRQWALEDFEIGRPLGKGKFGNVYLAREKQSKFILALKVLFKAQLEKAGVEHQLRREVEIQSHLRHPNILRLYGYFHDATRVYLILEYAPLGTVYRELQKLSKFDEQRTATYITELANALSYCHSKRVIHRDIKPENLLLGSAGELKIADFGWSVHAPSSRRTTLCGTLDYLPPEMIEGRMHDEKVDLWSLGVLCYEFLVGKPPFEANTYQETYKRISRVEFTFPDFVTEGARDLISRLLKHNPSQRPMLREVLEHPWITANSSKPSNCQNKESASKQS

[10] = target: Protein kinase C theta type (Homo sapiens) (UniProt Q04759); assay: Inhibition of human truncated PKC theta expressed in baculovirus assessed as substrate phosphorylation using fluorescence-labelled peptides as substrate at 0.2 uM after 90 mins by microfluidic peptide phosphorylation assay
[11] = target: T3, Serine/threonine-protein kinase 3 (Homo sapiens) (UniProt Q13188); assay: Inhibition of human full length MST2 expressed in baculovirus assessed as substrate phosphorylation using fluorescence-labelled peptides as substrate at 8 uM after 90 mins by microfluidic peptide phosphorylation assay
T3 sequence (whole entry): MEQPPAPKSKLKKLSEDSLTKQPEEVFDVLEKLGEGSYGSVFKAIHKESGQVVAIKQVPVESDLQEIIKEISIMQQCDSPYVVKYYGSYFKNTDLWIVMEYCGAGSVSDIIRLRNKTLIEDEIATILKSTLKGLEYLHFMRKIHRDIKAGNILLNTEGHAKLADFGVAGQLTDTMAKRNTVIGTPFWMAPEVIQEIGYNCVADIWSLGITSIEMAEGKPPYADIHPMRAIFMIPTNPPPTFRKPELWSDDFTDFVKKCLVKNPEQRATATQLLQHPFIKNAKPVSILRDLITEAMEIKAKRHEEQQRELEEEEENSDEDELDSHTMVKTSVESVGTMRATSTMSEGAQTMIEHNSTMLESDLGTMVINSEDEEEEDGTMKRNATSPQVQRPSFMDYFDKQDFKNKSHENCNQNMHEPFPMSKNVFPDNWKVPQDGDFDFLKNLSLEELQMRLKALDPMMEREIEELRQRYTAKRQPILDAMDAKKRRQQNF

[12] = target: T4, MAP kinase-activated protein kinase 5 (Homo sapiens) (UniProt Q8IW41); assay: Inhibition of human full length PRAK expressed in baculovirus assessed as substrate phosphorylation using fluorescence-labelled peptides as substrate at 1000 uM after 90 mins by microfluidic peptide phosphorylation assay
T4 sequence (whole entry): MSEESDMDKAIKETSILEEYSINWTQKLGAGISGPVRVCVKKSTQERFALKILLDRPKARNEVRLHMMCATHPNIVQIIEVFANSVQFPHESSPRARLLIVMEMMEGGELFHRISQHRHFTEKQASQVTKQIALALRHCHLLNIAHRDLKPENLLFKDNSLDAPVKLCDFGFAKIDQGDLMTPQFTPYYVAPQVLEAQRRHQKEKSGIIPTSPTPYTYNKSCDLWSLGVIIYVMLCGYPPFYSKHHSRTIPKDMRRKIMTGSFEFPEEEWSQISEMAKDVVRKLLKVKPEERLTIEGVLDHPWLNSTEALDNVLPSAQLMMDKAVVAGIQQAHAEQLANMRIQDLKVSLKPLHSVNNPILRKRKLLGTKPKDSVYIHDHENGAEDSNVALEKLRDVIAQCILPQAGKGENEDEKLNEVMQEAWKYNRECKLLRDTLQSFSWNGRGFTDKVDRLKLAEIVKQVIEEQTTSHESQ

Mitogen-activated protein kinase 1 (Homo sapiens), sequence (P28482 whole entry, the tested form may be a part): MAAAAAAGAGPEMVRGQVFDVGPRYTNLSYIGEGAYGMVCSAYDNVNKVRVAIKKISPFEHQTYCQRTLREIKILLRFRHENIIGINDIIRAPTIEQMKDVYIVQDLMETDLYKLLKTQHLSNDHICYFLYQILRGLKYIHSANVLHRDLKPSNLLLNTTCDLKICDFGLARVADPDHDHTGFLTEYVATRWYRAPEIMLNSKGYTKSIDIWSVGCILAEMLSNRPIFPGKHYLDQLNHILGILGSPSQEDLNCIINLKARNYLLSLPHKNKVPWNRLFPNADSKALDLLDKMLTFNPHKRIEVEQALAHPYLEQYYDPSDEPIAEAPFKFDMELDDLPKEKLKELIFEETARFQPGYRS
Ribosomal protein S6 kinase alpha-2 (Homo sapiens), sequence (Q15349 whole entry): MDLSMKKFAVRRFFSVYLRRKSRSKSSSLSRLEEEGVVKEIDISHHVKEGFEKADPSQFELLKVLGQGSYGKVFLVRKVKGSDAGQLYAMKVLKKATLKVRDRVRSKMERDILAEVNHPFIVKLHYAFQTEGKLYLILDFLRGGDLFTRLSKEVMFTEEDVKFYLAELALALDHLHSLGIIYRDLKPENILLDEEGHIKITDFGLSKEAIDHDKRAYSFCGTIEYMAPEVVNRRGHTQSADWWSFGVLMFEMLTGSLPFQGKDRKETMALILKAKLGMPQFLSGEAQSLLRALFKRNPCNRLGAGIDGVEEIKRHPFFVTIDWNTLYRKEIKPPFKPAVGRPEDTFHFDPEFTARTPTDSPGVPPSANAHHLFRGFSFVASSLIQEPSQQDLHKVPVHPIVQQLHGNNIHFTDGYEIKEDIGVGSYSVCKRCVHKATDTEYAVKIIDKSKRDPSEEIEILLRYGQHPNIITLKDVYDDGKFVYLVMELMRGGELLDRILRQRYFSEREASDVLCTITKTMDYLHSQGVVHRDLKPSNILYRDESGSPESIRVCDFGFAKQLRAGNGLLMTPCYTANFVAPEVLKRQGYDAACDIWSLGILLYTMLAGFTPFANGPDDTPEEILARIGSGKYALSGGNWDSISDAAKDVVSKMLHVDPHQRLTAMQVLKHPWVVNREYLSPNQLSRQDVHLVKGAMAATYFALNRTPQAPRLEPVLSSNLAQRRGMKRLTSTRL
Protein kinase C theta type (Homo sapiens), sequence (Q04759 whole entry, looked up, the tested form may be a part): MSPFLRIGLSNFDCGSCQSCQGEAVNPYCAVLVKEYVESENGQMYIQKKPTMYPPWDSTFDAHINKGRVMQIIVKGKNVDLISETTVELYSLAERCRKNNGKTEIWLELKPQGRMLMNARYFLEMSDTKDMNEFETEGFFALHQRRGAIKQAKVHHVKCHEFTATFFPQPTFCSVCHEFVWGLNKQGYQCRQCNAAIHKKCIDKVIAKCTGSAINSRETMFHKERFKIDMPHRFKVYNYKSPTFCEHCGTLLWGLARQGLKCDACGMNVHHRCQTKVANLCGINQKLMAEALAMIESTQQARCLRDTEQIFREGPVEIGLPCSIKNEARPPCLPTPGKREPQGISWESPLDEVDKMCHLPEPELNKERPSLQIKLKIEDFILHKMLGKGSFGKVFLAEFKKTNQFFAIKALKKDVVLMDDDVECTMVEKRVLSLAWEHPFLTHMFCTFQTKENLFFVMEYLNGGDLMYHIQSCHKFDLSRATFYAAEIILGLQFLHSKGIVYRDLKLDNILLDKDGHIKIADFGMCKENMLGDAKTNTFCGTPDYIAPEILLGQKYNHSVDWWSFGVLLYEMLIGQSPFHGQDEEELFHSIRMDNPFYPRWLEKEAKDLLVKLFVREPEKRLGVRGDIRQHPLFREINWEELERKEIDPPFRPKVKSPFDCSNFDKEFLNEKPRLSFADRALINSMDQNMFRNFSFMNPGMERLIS
Tyrosine-protein kinase Lck (Homo sapiens), sequence (P06239 2-509 limits assumed): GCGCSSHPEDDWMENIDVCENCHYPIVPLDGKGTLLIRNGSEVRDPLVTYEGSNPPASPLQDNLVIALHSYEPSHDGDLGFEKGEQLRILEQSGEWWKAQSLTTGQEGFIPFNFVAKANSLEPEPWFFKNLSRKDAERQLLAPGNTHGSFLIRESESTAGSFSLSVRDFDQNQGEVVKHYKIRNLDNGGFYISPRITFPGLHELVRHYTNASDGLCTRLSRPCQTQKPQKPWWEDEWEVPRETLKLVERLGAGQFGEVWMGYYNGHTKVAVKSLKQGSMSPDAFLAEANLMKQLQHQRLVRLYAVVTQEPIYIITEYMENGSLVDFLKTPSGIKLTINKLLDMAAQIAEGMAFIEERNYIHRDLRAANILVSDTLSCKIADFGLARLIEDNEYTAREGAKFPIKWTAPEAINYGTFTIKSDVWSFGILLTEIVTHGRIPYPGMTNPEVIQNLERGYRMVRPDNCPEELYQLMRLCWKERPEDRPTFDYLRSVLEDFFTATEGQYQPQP
Mitogen-activated protein kinase 3 (Homo sapiens), sequence (P27361 whole entry): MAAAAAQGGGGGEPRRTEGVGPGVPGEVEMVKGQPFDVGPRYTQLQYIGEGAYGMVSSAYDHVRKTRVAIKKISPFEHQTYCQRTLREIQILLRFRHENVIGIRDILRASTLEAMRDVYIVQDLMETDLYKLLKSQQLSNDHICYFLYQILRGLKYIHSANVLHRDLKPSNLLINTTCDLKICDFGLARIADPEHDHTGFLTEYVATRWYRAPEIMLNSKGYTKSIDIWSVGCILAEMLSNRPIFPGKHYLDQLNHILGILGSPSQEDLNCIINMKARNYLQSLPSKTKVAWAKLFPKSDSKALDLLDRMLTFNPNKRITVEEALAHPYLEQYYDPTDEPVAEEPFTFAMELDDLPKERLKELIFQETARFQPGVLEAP
Serine/threonine-protein kinase Chk2 (Homo sapiens), sequence (O96017 whole entry, the tested form may be a part): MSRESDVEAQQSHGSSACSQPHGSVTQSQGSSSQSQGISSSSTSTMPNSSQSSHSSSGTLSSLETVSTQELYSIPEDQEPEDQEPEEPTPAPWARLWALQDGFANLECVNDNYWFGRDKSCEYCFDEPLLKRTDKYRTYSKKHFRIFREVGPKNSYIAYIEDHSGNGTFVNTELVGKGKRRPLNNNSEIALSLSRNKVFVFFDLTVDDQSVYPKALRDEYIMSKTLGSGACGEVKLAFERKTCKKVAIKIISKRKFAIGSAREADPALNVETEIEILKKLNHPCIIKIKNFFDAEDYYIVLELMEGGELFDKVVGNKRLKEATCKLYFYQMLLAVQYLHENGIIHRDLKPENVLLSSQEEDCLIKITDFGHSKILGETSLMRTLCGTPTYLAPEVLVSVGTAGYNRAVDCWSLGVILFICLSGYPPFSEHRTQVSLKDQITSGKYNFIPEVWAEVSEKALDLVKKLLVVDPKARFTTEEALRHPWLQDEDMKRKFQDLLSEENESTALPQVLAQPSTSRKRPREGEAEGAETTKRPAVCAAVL
Platelet-derived growth factor receptor alpha (Homo sapiens), sequence (P16234 whole entry, the tested form may be a part): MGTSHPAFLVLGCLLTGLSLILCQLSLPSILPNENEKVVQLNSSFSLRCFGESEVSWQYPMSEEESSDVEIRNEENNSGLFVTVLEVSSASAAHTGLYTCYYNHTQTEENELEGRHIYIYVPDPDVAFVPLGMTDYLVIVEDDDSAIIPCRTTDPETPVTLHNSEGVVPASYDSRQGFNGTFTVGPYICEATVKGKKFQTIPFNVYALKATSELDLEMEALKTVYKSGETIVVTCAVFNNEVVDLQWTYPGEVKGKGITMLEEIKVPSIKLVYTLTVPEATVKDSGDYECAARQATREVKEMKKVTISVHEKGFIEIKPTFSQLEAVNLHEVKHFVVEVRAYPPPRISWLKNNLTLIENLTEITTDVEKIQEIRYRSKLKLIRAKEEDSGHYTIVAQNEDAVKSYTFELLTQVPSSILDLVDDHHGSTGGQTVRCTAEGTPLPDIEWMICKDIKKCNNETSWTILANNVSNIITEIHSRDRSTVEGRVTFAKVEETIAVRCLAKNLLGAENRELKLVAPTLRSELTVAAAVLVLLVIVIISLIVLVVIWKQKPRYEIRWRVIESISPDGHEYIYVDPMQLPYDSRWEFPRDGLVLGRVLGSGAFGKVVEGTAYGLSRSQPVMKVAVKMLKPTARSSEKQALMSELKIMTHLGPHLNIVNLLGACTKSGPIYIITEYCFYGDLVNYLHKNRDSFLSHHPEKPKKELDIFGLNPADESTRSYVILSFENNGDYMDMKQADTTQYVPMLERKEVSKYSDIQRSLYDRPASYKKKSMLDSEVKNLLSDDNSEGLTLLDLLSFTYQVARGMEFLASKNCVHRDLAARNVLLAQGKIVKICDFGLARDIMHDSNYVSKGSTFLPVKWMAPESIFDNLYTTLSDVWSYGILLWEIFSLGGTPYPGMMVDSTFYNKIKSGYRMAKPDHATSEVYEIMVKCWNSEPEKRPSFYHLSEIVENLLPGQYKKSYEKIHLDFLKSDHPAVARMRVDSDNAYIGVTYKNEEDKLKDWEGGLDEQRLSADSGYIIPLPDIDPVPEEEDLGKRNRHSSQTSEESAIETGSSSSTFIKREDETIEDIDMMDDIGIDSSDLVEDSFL

`NCC1CN(c2ncnc3[nH]c4cnccc4c23)CCO1` (configuration not stated) was tested, and the inhibition [1] was 95.5%.

`NCCc1ccc(-c2ncnc3[nH]cnc23)cc1` showed an inhibition [2] of 59% and an inhibition [3] of 74%.

For `NC1(Cc2ccc(Cl)cc2)CCN(c2ncnc3[nH]ccc23)CC1`, the inhibition [4] was 3.5% and the inhibition [5] was 0%.

`C[C@H](CN(C)C)Oc1nc(Nc2cc3cccc(Cl)c3cn2)cnc1C#N` gave an inhibition [6] of 0% and an inhibition [7] of 8.5%.

`CNCc1ccc(-c2ncnc3[nH]cnc23)cc1` gave an inhibition [8] of 15%.

Compound `Clc1ccc(C2(c3ccc(-c4ncnc5[nH]cnc45)cc3)CCNCC2)cc1` has an inhibition [9] of 49% and an inhibition [10] of 31.5%.

`NCC1CCN(c2ncnc3[nH]ccc23)CC1` was tested, and the inhibition [11] was 73%.

`c1cnc2[nH]ccc2c1` gave an inhibition [12] of 77%.
